Measurements: US8598159B2, “Therapeutic pyrazoloquinoline derivatives” (Dart Neuroscience (Cayman) Ltd., priority 2007, dated 2013)

Each molecule was assayed on GABAA receptors (assay: Electrophysiology assay (two-electrode voltage clamp, Xenopus oocytes expressing GABAA receptors)). Conditions: positive (Pos) or negative (Neg) modulation of current at GABA EC20, screening concentration of 10 μM.
Format: cell-based
Method: The modulation of GABAA function is determined by changes in current as determined in an electrophysiology assay, as is detailed below.
mRNA was prepared from lyophilized plasmid pellets containing cDNA inserts encoding the specific GABAA receptor subunit. cDNAs encoding the α2, α3, and γ3 subunits were subcloned into pBluescript, SK^−. cDNAs encoding the a 1 and a 5 subunits were subcloned into prC while cDNA encoding the β2 subunit was subcloned into pcDNA1. The cDNA construct encoding the g 2s subunit is in the pGH19 expression construct. Overnight cultures of transformed DH5a bacterial cells were performed to grow sufficient quantities for maxiprep isolation of the plasmid cDNA. The resulting plasmid cDNA was linearized by digestion with an appropriate restriction enzyme that cleaves distal to the cDNA insert [XbaI (α1, β2), NotI (α3, γ2 s), SacII (α2), or ApaI (α5)]. Following digestion, plasmid cDNA was treated with proteinase K and extracted with phenol/chloroform/isoamyl alcohol, followed by ethanol precipitation. cDNA quality was assessed by agarose-gel electrophoresis (1.5% agarose gel). Samples were stored at −20° C. until use. In vitro transcription was performed with T7 RNA polymerase. mRNA was then stored at −80° C. until use. Plasmids were linearized with appropriate restriction enzymes before in vitro transcription using the Message Machine kit (Ambion, Austin, Tex.).
GABAA receptor expression in Xenopus oocytes: Following 45 min of 0.15% Tricaine anesthesia, an ovarian section containing the follicular oocytes was removed from the frog through a lateral abdominal incision. Oocytes were immediately placed in a calcium-free solution (NaCl 96 mM, MgCl2 1 mM, KCl 2 mM, Hepes 50 mM, pyruvate 2.5 mM, gentamycin 100 μg/mL, penicillin-streptomycin 50 U/mL, pH 7.4). Following 1.5-2 hour incubation in 0.2% collagenase (type II, Sigma Chemical Co., St. Louis, Mo.) at room temperature, individual Dumont stage V and VI oocytes were transferred to an incubator and maintained overnight in Barth's solution (NaCl 84 mM, NaHCO3 2.4 mM, MgSO4 0.82 mM, KCl 1 mM, Ca(NO3)2 0.33 mM, CaCl2 0.41 mM, Tris/HCl 7.5 mM, pyruvate 2.5 mM, gentamycin 50 μg/mL, penicillin-streptomycin, 100 units/mL, pH 7.4) at 18-20° C. and used for experiments 1-5 days post-injection. Oocytes were injected solution using an electronic microinjector (Drummond, Broomall, Pa.) with 50 nL of RNA containing 0.3-0.5 ng of each subunit RNA in a 1:1:2 ratio. The injected oocytes were used for experiments after 1-5 days of incubation in Barth's solution at 18-20° C.
Measurements of ion currents from oocytes expressing GABAA receptors were performed using a Warner two-electrode voltage-clamp amplifier (Warner Instruments, Inc., Foster City, Calif.) (Park-Chung, M. A., et al. (1999) Brain Res. 830: 72-87 incorporated herein in its entirety). Microelectrodes were fabricated from borosilicate glass capillaries with a programmed pipette puller (Sutter Instrument Co., CA). Microelectrode resistance was 1-3 MΩ when filled with 3 M KCl. The oocyte recording chamber was continuously perfused with ND-96 solution. Oocytes were clamped at a holding potential of −70 mV during data acquisition. The membrane current was filtered at 10 Hz and sampled at 100 Hz. Compounds were applied by a gravity-driven external perfusion system. The working volume of the recording chamber was […] and the rate of the perfusion was approximately […]. Compound application was 20-25 sec followed by a minimum of 150 sec wash. Data acquisition and external perfusion was computer controlled by custom-developed software. All experiments were performed at room temperature (22-24° C.). Dose-response data from each oocyte were fitted to the Hill equation by non-linear regression using the equation: IGABA=Emax/(1+(EC50/c)nH)
Emax is the maximum response, EC50 is the concentration producing 50% of the maximal response, nH is the Hill coefficient and c is the concentration of agonist. […]

Row | EP Result | Molecule
1 | Pos | O=c1c2c[nH]c3ccc(N4CCNCC4)cc3c-2nn1-c1ccccc1 [7a, 2-Phenyl-8-piperazin-1-yl-2,5-dihydro-pyrazolo[4,3-c]quinolin-3-one]
2 | Pos | CN1CCN(c2ccc3[nH]cc4c(=O)n(-c5ccccc5)nc-4c3c2)CC1 [7b, 8-(4-Methylpiperazin-1-yl)-2-phenyl-2,5-dihydro-pyrazolo[4,3-c]quinolin-3-one]
3 | Pos | O=c1c2c[nH]c3ccc(N4CCNCC4)cc3c-2nn1-c1ccc(Cl)cc1 [7c, 2-(4′-Chlorophenyl)-8-piperazin-1-yl-2,5-dihydro-pyrazolo[4,3-c]quinolin-3-one]
4 | Neg | O=c1c2c[nH]c3c(N4CCOCC4)cc(N4CCOCC4)cc3c-2nn1-c1ccccc1 [58a, 6,8-Bis(morpholin-4-yl)-2-phenyl-2,5-dihydro-pyrazolo[4,3-c]quinolin-3-one]
5 | Neg | CC(C)N1CCN(c2cc(N3CCN(C(C)C)CC3)c3[nH]cc4c(=O)n(-c5ccccc5)nc-4c3c2)CC1 [58b, 6,8-Bis(4-iso-propylpiperazin-1-yl)-2-phenyl-2,5-dihydro-pyrazolo[4,3-c]quinolin-3-one]

The molecules below were run against GABAA central benzodiazepine receptor (assay: Benzodiazepine binding assay ((3H)-flunitrazepam displacement)). Conditions: read-out: BZ binding assay (IC50); rat whole brain (except cerebellum), 1 nM (3H)-flunitrazepam, 60 minutes at 25° C.; 3-concentration dose response curve.

Row | IC50 | Molecule
6 | < 1000 nM | O=c1c2c[nH]c3ccc(N4CCNCC4)cc3c-2nn1-c1ccccc1 [7a, 2-Phenyl-8-piperazin-1-yl-2,5-dihydro-pyrazolo[4,3-c]quinolin-3-one]
7 | < 1000 nM | CN1CCN(c2ccc3[nH]cc4c(=O)n(-c5ccccc5)nc-4c3c2)CC1 [7b, 8-(4-Methylpiperazin-1-yl)-2-phenyl-2,5-dihydro-pyrazolo[4,3-c]quinolin-3-one]
8 | < 1000 nM | O=c1c2c[nH]c3ccc(N4CCNCC4)cc3c-2nn1-c1ccc(Cl)cc1 [7c, 2-(4′-Chlorophenyl)-8-piperazin-1-yl-2,5-dihydro-pyrazolo[4,3-c]quinolin-3-one]
9 | < 1000 nM | CC1CN(c2ccc3[nH]cc4c(=O)n(-c5ccccc5)nc-4c3c2)CC(C)O1 (centres unmarked) [19h, 8-(2,6-Dimethylmorpholin-4-yl)-2-phenyl-2,5-dihydro-pyrazolo[4,3-c]quinolin-3-one]
10 | < 1000 nM | CN(C)C1CCN(c2cc3[nH]cc4c(=O)n(-c5ccccc5)nc-4c3cc2F)CC1 [28i, 7-(4-Dimethylaminopiperidin-1-yl)-8-fluoro-2-phenyl-2,5-dihydro-pyrazolo[4,3-c]quinolin-3-one]
11 | < 1000 nM | O=c1c2c[nH]c3cc(N4CCN(C5CCCC5)CC4)c(F)cc3c-2nn1-c1ccccc1 [28j, 7-(4-Cyclopentylpiperazin-1-yl)-8-fluoro-2-phenyl-2,5-dihydro-pyrazolo[4,3-c]quinolin-3-one]
12 | < 1000 nM | O=c1c2c[nH]c3cc(N4CCC(O)CC4)c(F)cc3c-2nn1-c1ccccc1 [28k, 8-Fluoro-7-(4-hydroxypiperidin-1-yl)-2-phenyl-2,5-dihydro-pyrazolo[4,3-c]quinolin-3-one]
13 | < 1000 nM | O=c1c2c[nH]c3cc(N4CCCNCC4)c(F)cc3c-2nn1-c1ccccc1 [28l, 8-Fluoro-7-(perhydro[1,4]-diazepin-1-yl)-2-phenyl-2,5-dihydro-pyrazolo[4,3-c]quinolin-3-one]
14 | < 1000 nM | CN1CCCN(c2cc3[nH]cc4c(=O)n(-c5ccccc5)nc-4c3cc2F)CC1 [28m, 8-Fluoro-7-(4-methylperhydro[1,4]-diazepin-1-yl)-2-phenyl-2,5-dihydro-pyrazolo[4,3-c]quinolin-3-one]
15 | > 1000 nM | O=c1c2c[nH]c3cc(N4CCNCC4)c(F)cc3c-2nn1-c1ccccc1F [28n, 8-Fluoro-2-(2-fluorophenyl)-7-(piperazin-1-yl)-2,5-dihydro-pyrazolo[4,3-c]quinolin-3-one]
16 | < 1000 nM | CN1CCN(c2cc3[nH]cc4c(=O)n(-c5ccccc5F)nc-4c3cc2F)CC1 [28o, 8-fluoro-2-(2-fluorophenyl)-7-(4-methylpiperazin-1-yl)-2,5-dihydro-pyrazolo[4,3-c]quinolin-3-one]
17 | > 1000 nM | CN1CCN(c2cc3[nH]cc4c(=O)n(-c5ccsc5)nc-4c3cc2F)CC1 [28q, 8-fluoro-7-(4-methylpiperazin-1-yl)-2-(thiophen-3-yl)-2,5-dihydro-pyrazolo[4,3-c]quinolin-3-one]
18 | < 1000 nM | O=c1c2c[nH]c3cc(N4CCOCC4)c(F)cc3c-2nn1-c1ccsc1 [28r, 8-fluoro-7-(morpholin-4-yl)-2-(thiophen-3-yl)-2,5-dihydro-pyrazolo[4,3-c]quinolin-3-one]
19 | > 1000 nM | CN1CCN(c2ccc3c4nn(-c5ccccc5)c(=O)c-4c[nH]c3c2F)CC1 [48b, 6-Fluoro-7-(4-methyl-piperazin-1-yl)-2-phenyl-2,5-dihydro-pyrazolo [4,3-c]quinolin-3-one]
20 | < 1000 nM | O=c1c2c[nH]c3c(F)c(N4CCOCC4)ccc3c-2nn1-c1ccccc1 [48c, 6-Fluoro-7-(morpholin-4-yl)-2-phenyl-2,5-dihydro-pyrazolo[4,3-c]quinolin-3-one]
21 | < 1000 nM | O=c1c2c[nH]c3c(F)c(N4CCCNCC4)ccc3c-2nn1-c1ccccc1 [48d, 6-Fluoro-7-(perhydro[1,4]-diazepine-1-yl)-2-phenyl-2,5-dihydro-pyrazolo[4,3-c]quinolin-3-one]
22 | < 1000 nM | CC(C)N1CCN(c2ccc3c4nn(-c5ccccc5)c(=O)c-4c[nH]c3c2F)CC1 [48e, 6-Fluoro-7-(4-iso-propylpiperazin-1-yl)-2-phenyl-2,5-dihydro-pyrazolo [4,3-c]quinolin-3-one]
23 | < 1000 nM | CC(C)N1CCN(c2ccc3c4nn(-c5ccccn5)c(=O)c-4c[nH]c3c2F)CC1 [48f, 6-Fluoro-7-(4-iso-propylpiperazin-1-yl)-2-(2′-pyridyl)-2,5-dihydro-pyrazolo[4,3-c]quinolin-3-one]
24 | < 1000 nM | O=c1c2c[nH]c3c(N4CCNCC4)cc(C(F)(F)F)cc3c-2nn1-c1ccccc1 [52a, 2-Phenyl-6-piperazin-1-yl-8-trifluoromethyl-2,5-dihydro-pyrazolo[4,3-c]quinolin-3-one]
25 | < 1000 nM | CN1CCN(c2cc(C(F)(F)F)cc3c4nn(-c5ccccc5)c(=O)c-4c[nH]c23)CC1 [52b, 2-Phenyl-6-(4-methylpiperazin-1-yl)-8-trifluoromethyl-2,5-dihydro-pyrazolo[4,3-c]quinolin-3-one]
26 | < 1000 nM | O=c1c2c[nH]c3c(N4CCCNCC4)cc(C(F)(F)F)cc3c-2nn1-c1ccccc1 [52c, 2-Phenyl-6-(perhydro[1,4]-diazepine-1-yl)-8-trifluoromethyl-2,5-dihydro-pyrazolo[4,3-c]quinolin-3-one]
27 | > 1000 nM | Cc1[nH]c2cc(N3CCNCC3)c(F)cc2c2nn(-c3ccccc3)c(=O)c1-2 [63a, 8-Fluoro-4-methyl-2-phenyl-7-piperazin-1-yl-2,5-dihydro-pyrazolo[4,3-c]quinolin-3-one]
28 | > 1000 nM | Cc1[nH]c2cc(N3CCOCC3)c(F)cc2c2nn(-c3ccccc3)c(=O)c1-2 [63b, 8-Fluoro-4-methyl-7-morpholin-4-yl-2-phenyl-2,5-dihydro-pyrazolo [4,3-c]quinolin-3-one]
29 | < 1000 nM | O=c1c2c[nH]c3cc(N4CCOCC4)c(F)c(N4CCOCC4)c3c-2nn1-c1ccccc1 [compound 55, 7,9-Bis(morpholin-4-yl)-8-fluoro-2-phenyl-2,5-dihydro-pyrazolo[4,3-c]quinolin-3-one]

Row | Molecule | IC50
30 | 2-Phenyl-6-(4-iso-propylpiperazin-1-yl)-8-trifluoromethyl-2,5-dihydro-pyrazolo[4,3-c]quinolin-3-one [52d] | < 1000 nM
31 | O=c1c2c[nH]c3cc(N4CCNCC4)c(F)cc3c-2nn1-c1ccccc1 [28a, 8-Fluoro-2-phenyl-7-piperazin-1-yl-2,5-dihydro-pyrazolo[4,3-c]quinolin-3-one] | < 1000 nM
32 | O=c1c2c[nH]c3c(F)c(N4CCNCC4)ccc3c-2nn1-c1ccccc1 [48a, 6-Fluoro-2-phenyl-7-piperazin-1-yl-2,5-dihydro-pyrazolo[4,3-c]quinolin-3-one] | > 1000 nM
